The record followed here is ChEMBL document CHEMBL1201862, “PubChem BioAssay data set” (2004).

Calls of active or inactive are those of the source.

Holding throughout (format): functional
For test [1], the target named is T1, Replicative DNA helicase DnaB (Mycobacterium tuberculosis, UniProt P9WMR3).
T1 sequence (P9WMR3 whole entry): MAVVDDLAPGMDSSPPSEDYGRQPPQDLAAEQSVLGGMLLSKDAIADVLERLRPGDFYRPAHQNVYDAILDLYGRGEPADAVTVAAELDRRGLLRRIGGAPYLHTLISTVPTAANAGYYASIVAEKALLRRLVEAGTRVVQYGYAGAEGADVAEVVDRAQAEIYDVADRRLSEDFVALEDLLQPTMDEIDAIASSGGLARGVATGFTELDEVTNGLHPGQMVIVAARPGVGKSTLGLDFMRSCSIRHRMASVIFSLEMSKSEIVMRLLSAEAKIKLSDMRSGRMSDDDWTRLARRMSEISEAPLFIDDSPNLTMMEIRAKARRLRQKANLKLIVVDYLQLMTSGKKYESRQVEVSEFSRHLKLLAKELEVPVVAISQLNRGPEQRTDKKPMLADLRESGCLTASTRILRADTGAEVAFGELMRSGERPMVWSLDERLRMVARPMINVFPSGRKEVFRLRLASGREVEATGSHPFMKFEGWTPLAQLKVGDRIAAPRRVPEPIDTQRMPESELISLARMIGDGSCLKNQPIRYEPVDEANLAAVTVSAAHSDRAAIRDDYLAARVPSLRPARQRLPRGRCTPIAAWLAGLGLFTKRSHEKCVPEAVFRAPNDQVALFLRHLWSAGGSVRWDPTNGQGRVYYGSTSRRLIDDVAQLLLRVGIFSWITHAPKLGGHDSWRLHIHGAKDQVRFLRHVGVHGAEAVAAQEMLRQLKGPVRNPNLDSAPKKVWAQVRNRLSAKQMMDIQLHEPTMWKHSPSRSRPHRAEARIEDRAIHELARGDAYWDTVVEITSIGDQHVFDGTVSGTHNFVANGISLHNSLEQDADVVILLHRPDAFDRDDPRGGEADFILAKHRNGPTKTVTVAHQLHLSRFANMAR
Nature of the test: DnaB intein splicing inhibitors, dose response, biochemical, cell-free fluorescence (AID 449749).

In test [2] the target is 5'-AMP-activated protein kinase catalytic subunit alpha-1 (Homo sapiens, UniProt Q13131).
In test [3] the target is Activated CDC42 kinase 1 (Homo sapiens, UniProt Q07912). Nature of the test: Navigating the Kinome. Panel member name: ACK1.
Activated CDC42 kinase 1, sequence (Q07912 whole entry): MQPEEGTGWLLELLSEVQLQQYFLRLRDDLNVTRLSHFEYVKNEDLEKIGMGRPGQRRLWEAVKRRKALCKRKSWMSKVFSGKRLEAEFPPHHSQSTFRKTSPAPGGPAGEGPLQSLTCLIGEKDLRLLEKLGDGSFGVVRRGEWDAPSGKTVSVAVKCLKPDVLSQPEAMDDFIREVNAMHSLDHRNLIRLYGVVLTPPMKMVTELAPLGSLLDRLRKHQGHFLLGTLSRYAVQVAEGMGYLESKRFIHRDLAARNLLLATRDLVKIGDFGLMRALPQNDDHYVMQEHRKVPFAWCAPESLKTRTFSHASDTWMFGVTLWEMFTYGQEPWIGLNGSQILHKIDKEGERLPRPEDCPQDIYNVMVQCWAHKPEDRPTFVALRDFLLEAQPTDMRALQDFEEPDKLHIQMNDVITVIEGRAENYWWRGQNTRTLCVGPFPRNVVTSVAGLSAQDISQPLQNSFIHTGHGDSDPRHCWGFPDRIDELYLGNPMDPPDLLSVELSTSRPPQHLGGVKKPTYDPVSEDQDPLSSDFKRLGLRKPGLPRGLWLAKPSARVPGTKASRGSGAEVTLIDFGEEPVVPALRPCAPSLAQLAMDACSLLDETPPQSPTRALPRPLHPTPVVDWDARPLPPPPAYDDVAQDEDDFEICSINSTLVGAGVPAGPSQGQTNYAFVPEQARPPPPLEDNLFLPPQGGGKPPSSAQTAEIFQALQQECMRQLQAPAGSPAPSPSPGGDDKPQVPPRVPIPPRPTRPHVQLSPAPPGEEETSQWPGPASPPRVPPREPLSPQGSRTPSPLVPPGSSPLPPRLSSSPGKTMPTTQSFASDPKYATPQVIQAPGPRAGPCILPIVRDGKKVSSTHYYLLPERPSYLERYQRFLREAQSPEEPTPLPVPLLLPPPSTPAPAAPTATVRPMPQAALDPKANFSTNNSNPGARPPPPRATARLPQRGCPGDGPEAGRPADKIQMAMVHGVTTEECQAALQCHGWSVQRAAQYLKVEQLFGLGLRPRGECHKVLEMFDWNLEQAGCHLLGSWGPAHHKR
Test [4] concerns the target Cyclin-dependent kinase 7 (Homo sapiens, UniProt P50613).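 Also: value comes from a kinome-wide kinase profiling panel in which CDK7 is one member.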
Test [5] concerns the target Dual specificity mitogen-activated protein kinase kinase 1 (Homo sapiens, UniProt Q02750). Nature of the test: Navigating the Kinome. Panel member name: MAP2K1.
Test [6] addresses Glycogen synthase kinase-3 beta (Homo sapiens, UniProt P49841).
Test [7] deals with Dual specificity protein kinase CLK2 (Homo sapiens, UniProt P49760).
The target in test [8] is Fibroblast growth factor receptor 1 (Homo sapiens, UniProt P11362).
The target in test [9] is Vascular endothelial growth factor receptor 2 (Homo sapiens, UniProt P35968).
Vascular endothelial growth factor receptor 2, sequence (P35968 whole entry): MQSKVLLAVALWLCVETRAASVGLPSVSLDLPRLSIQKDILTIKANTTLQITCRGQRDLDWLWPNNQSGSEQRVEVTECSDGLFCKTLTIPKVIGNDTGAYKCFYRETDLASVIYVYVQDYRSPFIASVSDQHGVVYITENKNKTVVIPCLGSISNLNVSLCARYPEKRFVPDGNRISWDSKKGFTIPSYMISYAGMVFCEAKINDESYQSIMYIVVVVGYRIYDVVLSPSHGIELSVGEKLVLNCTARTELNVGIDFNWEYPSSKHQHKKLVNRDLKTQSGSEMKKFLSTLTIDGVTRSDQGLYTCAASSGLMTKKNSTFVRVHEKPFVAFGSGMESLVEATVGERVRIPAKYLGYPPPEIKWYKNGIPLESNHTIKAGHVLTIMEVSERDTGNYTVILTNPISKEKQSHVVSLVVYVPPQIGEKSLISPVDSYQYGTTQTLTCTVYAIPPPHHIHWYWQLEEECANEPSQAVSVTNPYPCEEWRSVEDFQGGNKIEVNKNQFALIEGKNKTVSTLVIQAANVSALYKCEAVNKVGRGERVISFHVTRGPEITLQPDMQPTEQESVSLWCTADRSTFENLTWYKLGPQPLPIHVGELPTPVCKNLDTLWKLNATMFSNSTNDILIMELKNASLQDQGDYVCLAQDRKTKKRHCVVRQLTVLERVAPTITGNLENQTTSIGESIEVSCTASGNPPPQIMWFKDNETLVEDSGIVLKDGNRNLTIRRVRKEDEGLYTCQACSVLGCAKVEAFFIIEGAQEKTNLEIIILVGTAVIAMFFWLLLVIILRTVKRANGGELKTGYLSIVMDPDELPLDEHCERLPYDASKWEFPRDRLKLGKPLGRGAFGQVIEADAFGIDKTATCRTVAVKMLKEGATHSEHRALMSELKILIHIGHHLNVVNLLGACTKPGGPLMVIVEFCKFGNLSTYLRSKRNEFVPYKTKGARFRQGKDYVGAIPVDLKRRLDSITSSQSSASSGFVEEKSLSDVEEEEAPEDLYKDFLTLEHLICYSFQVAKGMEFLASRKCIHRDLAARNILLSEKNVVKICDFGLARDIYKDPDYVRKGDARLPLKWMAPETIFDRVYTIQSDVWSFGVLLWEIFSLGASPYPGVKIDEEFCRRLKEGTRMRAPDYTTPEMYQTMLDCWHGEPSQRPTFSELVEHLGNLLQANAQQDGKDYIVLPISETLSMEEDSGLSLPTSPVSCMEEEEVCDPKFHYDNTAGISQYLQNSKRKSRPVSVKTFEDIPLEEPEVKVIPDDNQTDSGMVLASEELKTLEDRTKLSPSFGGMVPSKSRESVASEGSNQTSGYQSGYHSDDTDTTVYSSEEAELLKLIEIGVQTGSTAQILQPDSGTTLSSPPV
The target in test [10] is Serine/threonine-protein kinase pim-1 (Homo sapiens, UniProt P11309).
Serine/threonine-protein kinase pim-1, sequence (P11309 whole entry): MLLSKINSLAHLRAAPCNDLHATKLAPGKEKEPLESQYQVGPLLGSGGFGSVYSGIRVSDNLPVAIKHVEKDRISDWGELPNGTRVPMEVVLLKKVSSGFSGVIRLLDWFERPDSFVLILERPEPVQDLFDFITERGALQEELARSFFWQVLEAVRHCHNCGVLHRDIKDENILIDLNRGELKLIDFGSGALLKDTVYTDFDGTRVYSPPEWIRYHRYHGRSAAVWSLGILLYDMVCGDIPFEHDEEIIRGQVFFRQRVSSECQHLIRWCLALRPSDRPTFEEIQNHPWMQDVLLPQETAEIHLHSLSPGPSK
Test [11] has as its target T2, Aurora kinase A (Homo sapiens, UniProt O14965).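 Also: value from the Navigating the Kinome kinase panel profiling, panel entry STK6.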
T2 sequence (O14965 whole entry): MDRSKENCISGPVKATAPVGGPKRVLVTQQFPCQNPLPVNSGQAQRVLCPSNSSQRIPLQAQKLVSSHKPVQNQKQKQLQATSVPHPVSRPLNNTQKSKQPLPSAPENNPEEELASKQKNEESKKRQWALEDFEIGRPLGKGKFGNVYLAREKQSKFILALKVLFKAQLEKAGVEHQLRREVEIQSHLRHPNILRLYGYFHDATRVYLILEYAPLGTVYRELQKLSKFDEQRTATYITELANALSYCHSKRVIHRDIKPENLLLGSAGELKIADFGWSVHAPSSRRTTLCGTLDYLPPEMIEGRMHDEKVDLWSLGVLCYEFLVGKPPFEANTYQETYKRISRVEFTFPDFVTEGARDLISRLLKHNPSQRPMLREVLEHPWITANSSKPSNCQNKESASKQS

For test [12], the target named is Casein kinase I isoform alpha (Homo sapiens, UniProt P48729).
The target of test [13] is Dual specificity tyrosine-phosphorylation-regulated kinase 1A (Homo sapiens, UniProt Q13627).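 Also: measured against DYRK1A as one member of a broad kinome profiling panel.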
The target in test [14] is Vascular endothelial growth factor receptor 1 (Homo sapiens, UniProt P17948).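 Also: measured within a kinome-wide profiling panel, FLT1 as the panel member.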
Vascular endothelial growth factor receptor 1, sequence (P17948 whole entry): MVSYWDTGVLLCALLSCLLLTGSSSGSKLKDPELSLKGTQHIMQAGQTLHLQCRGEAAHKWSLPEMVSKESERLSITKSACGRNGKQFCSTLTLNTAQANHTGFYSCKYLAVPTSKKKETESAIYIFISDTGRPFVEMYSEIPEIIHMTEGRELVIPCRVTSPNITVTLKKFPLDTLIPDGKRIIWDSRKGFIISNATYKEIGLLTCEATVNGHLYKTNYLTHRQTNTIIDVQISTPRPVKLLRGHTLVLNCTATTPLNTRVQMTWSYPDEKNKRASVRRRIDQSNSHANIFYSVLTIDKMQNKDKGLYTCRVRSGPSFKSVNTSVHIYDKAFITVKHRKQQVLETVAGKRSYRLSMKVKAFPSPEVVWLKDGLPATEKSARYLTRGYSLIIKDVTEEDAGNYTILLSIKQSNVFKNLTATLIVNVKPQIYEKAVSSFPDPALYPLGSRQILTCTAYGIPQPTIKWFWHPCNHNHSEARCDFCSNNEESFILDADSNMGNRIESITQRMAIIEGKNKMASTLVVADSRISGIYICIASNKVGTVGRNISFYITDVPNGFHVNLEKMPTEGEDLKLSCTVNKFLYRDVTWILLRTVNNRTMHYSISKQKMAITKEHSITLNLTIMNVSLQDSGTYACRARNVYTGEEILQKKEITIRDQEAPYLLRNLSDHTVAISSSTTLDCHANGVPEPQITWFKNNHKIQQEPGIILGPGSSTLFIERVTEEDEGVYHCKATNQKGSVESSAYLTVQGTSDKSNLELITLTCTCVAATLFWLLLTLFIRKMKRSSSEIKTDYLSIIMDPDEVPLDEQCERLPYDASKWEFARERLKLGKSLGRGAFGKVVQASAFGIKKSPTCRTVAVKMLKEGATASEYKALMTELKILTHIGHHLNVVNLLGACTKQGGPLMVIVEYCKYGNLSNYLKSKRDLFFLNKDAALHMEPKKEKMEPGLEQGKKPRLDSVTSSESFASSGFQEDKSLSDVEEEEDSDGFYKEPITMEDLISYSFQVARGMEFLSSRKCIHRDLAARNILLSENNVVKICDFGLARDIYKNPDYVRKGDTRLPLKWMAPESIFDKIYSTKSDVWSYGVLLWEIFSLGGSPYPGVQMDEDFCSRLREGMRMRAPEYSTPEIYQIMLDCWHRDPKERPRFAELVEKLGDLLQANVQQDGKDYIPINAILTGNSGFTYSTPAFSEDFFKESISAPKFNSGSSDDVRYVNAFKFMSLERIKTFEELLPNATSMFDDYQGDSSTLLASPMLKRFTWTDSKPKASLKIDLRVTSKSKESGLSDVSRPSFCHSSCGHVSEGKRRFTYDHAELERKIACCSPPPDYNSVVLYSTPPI
The target of test [15] is Hepatocyte growth factor receptor (Homo sapiens, UniProt P08581).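 Also: kinase panel profiling across the kinome, with MET as the panel member.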

Dual specificity mitogen-activated protein kinase kinase 1, sequence (Q02750 whole entry): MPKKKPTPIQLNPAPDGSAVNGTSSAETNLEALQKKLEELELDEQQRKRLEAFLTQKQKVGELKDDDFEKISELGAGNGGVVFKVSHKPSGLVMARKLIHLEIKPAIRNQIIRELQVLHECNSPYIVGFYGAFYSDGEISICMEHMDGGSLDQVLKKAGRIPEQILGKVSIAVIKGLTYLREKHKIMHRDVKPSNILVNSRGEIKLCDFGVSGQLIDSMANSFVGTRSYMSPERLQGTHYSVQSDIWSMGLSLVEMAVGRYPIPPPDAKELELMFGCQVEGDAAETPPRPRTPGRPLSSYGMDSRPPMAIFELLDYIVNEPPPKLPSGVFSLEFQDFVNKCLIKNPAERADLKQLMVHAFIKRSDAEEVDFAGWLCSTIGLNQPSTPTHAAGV
Glycogen synthase kinase-3 beta, sequence (P49841 whole entry): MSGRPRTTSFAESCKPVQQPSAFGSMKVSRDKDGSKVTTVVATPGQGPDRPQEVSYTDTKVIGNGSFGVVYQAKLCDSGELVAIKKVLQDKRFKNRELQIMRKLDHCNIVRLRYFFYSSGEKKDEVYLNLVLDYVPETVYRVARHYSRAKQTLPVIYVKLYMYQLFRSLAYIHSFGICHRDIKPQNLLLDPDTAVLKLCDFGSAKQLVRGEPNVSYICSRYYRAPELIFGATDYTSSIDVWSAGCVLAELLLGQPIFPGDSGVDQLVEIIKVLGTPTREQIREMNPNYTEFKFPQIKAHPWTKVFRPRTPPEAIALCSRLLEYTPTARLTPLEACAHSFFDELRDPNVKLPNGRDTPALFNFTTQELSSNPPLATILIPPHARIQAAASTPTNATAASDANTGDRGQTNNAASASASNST

Regarding `O=C(Cc1ccccc1)NC1(O)C(=O)c2ccccc2C1=O`, the AC50 in test [1] was 6.13 µM (active).

As for `O=c1[nH]c2cc(Br)cnc2[nH]1`, the Ki is 25.1 µM (active) in test [2]; 50.1 µM (active) in [3]; 12.6 µM (active) in test [4]; 50.1 µM (active) in [5]; 63.1 µM (active) in [6]; 25.1 µM (active) in test [7]. In addition, the Ki in test [8] was 50.1 µM (active); in [9], 20 µM (active); in test [10] it was 25.1 µM (active); in test [11] it was 10 µM (active); in test [12] it was 6.31 µM (active); in test [13], 3.98 µM (active). Besides, the Ki in test [14] was 10 µM (active).

Regarding `O=C(Nc1cccc(C(F)(F)F)n1)Nc1ccnc2cc(OC(F)F)ccc12`, the Ki was > 3.16 µM (inactive) in test [2]; > 3.98 µM (inactive) in test [3]; > 3.98 µM (inactive) in test [4]; > 2.51 µM (inactive) in test [15]; > 3.16 µM (inactive) in [5]; > 3.98 µM (inactive) in test [7]. In addition, the Ki in test [8] is > 3.98 µM (inactive); in test [9], > 1.58 µM (inactive); in [10] it was > 6.31 µM (inactive); in [11] it was > 1.58 µM (inactive); in [12], > 3.98 µM (inactive); in test [13], > 2 µM (inactive). Also, the Ki in test [14] was > 3.98 µM (inactive).

On to `O=C(Nc1cccc(C(F)(F)F)n1)Nc1ccnc2cc(Cl)ccc12`, for which the Ki in test [2] was > 3.16 µM (inactive); in test [3], > 3.98 µM (inactive); in test [4], > 3.98 µM (inactive); in test [15], > 2.51 µM (inactive); in test [5] it was 3.16 µM (active); in test [6], 0.00794 µM (active). In addition, the Ki in test [7] was > 3.98 µM (inactive); in test [8], > 3.98 µM (inactive); in test [9] it was > 2.51 µM (inactive); in test [10], > 5.01 µM (inactive); in [11], > 1.58 µM (inactive); in [12], > 3.98 µM (inactive). Also, the Ki in test [13] was > 2 µM (inactive); in test [14], > 3.98 µM (inactive).

Consider `CCC1CC(NS(=O)(=O)C2CC2)CC1c1ncc2cnc3[nH]ccc3n12` (configuration not stated), for which the Ki in test [2] is 2 µM (active); in [3] it was 1.58 µM (active); in [4] it was > 3.98 µM (inactive); in [15], > 2.51 µM (inactive); in [5], > 3.16 µM (inactive); in test [6], > 3.98 µM (inactive). The Ki was > 3.98 µM (inactive) in test [7]; 1.26 µM (active) in test [8]; 1 µM (active) in [9]; > 6.31 µM (inactive) in test [10]; 1.26 µM (active) in test [11]; > 3.98 µM (inactive) in [12]. For the same compound, the Ki in test [13] was > 2 µM (inactive); in test [14], > 3.98 µM (inactive).

On to `Cc1cc(C)c(S(=O)(=O)/N=C2\C=C(Nc3ccc(C(=O)O)cc3)C(=O)c3ccccc32)c(C)c1`, for which, in test [1], the AC50 is 0.149 µM (active).

For `COC(=O)c1nc(-c2ccc3c(n2)C(=O)C(=N)C(OC)=C3O)c(N)c(-c2ccc(OC)c(OC)c2O)c1C`, in test [1], the AC50 was > 380 µM (inconclusive).
